Laboratory results as given in article PMC5854701 (Scientific Reports, 2018).

What was measured:
in vitro [1] = conditions: dog
[2] = tested on: influenza B virus B/Brisbane/60/2008 (Victoria); assay: in vitro; conditions: dog, MDCK
A/WSN/33 (H1N1) [3] = tested on: A/WSN/33 (H1N1)
[4] = tested on: influenza B virus B/Wisconsin/1/2010 (Yamagata); assay: in vitro; conditions: dog, MDCK
[5] = tested on: multiple strains of influenza A and B viruses; assay: microbe, parasite or virus in culture; type: cell-based
[6] = tested on: influenza B virus B/Utah/09/2014 (Yamagata); assay: in vitro; conditions: dog, MDCK
[7] = tested on: B/Brisbane/60/2008 (Victoria)
[8] = tested on: B/Utah/09/2014 (Yamagata)
[9] = tested on: B/Memphis/20/1996 (Yamagata)
[10] = tested on: A/Denmark/524/2009 (H1N1)
[11] = tested on: influenza B virus B/Phuket/3073/2013 (Yamagata); assay: in vitro; conditions: dog, MDCK
[12] = tested on: B/Phuket/3073/2013 (Yamagata)
[13] = tested on: A/California/07/2009 (H1N1)
[14] = tested on: A/Washington/29/2009 (H1N1)
in vitro [15] = conditions: human
[16] = tested on: B/Wisconsin/1/2010 (Yamagata)
A/WSN/33 (H1N1) [17] = tested on: A/WSN/33 (H1N1); remark: listed apart in the source
[18] = tested on: A/Switzerland/9715293/2013 (H3N2)
[19] = tested on: influenza B virus B/Memphis/20/1996 (Yamagata); assay: in vitro; conditions: dog, MDCK
[20] = tested on: A/Denmark/528/2009 (H1N1)

Compound: O=c1[nH]c2ccccc2n1C1CCN(C(CCc2ccccc2)c2nnnn2-c2ccc3c(c2)OCCO3)CC1 (stereo not drawn) [Compound 5, 1‐(1‐{1‐[1‐(2,3‐dihydro‐1,4‐benzodioxin‐6‐yl)‐1,2,3,4‐tetrazol‐5‐yl]‐3‐phenylpropyl}piperidin‐4‐ yl)‐3 H‐1,3‐benzodiazol‐2‐one]
- CC50 (in vitro [1]): 17.4 ± 1.2 µM
- selectivity ratio [2]: 17.4
- % plaque formation at 5 µM (A/WSN/33 (H1N1) [3]): 16.5 ± 1.2%
- selectivity ratio [4]: 19.3
- EC50 values against panel of influenza A and B viruses [5]: single to submicromolar

Compound: O=c1[nH]c2ccccc2n1C1CCN(C(c2ccc(-c3ccccc3)cc2)c2nnnn2-c2ccc3c(c2)OCCO3)CC1 (stereo not drawn) [Compound 9 f, 1‐[1‐({[1,1′‐biphenyl]‐4‐yl}[1‐(2,3‐dihydro‐1,4‐benzodioxin‐6‐yl)‐1 H‐1,2,3,4‐tetrazol‐5‐yl]methyl)piperidin‐4‐yl]‐2,3‐dihydro‐1 H‐1,3‐benzodiazol‐2‐one]
- antiviral activity in plaque assay (in words) (A/WSN/33 (H1N1) [3]): not active

Compound: CCc1ccc(C(c2nnnn2-c2ccc3c(c2)OCCO3)N2CCC(n3c(=O)[nH]c4ccccc43)CC2)cc1 (stereo not drawn) [Compound 9 g, 1‐(1‐{[1‐(2,3‐dihydro‐1,4‐benzodioxin‐6‐yl)‐1 H‐1,2,3,4‐tetrazol‐5‐yl](4‐ethylphenyl)methyl}piperidin‐4‐yl)‐2,3‐dihydro‐1 H‐1,3‐benzodiazol‐2‐one]
- antiviral activity in plaque assay (in words) (A/WSN/33 (H1N1) [3]): moderate antiviral activity

Compound: O=c1[nH]c2ccccc2n1C1CCN(C(c2ccncc2)c2nnnn2-c2ccc3c(c2)OCCO3)CC1 (stereo not drawn) [Compound 9 h, 1‐(1‐{[1‐(2,3‐dihydro-1,4-benzodioxin-6-yl)-1 H-1,2,3,4-tetrazol-5-yl](pyridin-4-yl)methyl}piperidin-4-yl)-2,3-dihydro-1 H-1,3-benzodiazol-2-one]
- antiviral activity in plaque assay (in words) (A/WSN/33 (H1N1) [3]): moderate antiviral activity

Compound: O=c1[nH]c2ccccc2n1C1CCN(C(c2ccccc2OC(F)(F)F)c2nnnn2Cc2ccccc2)CC1 (stereo not drawn) [Compound 9 u, 1‐{1‐[(1‐benzyl‐1 H‐1,2,3,4‐tetrazol‐5‐yl)[2‐(trifluoromethoxy)phenyl]methyl]piperidin‐4‐yl}‐2,3‐dihydro‐1 H‐1,3‐benzodiazol‐2‐one]
- % plaque formation at 5 µM (A/WSN/33 (H1N1) [3]): 22.7 ± 2.2%

Compound: CCC(c1nnnn1-c1ccc2c(c1)OCCO2)N1CCC(n2c(=O)[nH]c3ccccc32)CC1 (stereo not drawn) [Compound 9d, 1‐(1‐{1‐[1‐(2,3‐dihydro‐1,4‐benzodioxin‐6‐yl)‐1 H‐1,2,3,4‐tetrazol‐5‐yl]propyl}piperidin‐4‐yl)‐2,3‐dihydro‐1 H‐1,3‐benzodiazol‐2‐one]
- antiviral activity in plaque assay (in words) (A/WSN/33 (H1N1) [3]): moderate antiviral activity

Compound: O=c1[nH]c2ccccc2n1C1CCN(C(Cc2ccccc2)c2nnnn2-c2ccc3c(c2)OCCO3)CC1 (stereo not drawn) [Compound 9e, 1‐(1‐{1‐[1‐(2,3‐dihydro‐1,4‐benzodioxin‐6‐yl)‐1 H‐1,2,3,4‐tetrazol‐5‐yl]‐2‐phenylethyl}piperidin‐4‐yl)‐2,3‐dihydro‐1 H‐1,3‐benzodiazol‐2‐one]
- antiviral activity in plaque assay (in words) (A/WSN/33 (H1N1) [3]): moderate antiviral activity

Compound: CC(C)c1ccc(C(c2nnnn2-c2ccc3c(c2)OCCO3)N2CCC(n3c(=O)[nH]c4ccccc43)CC2)cc1 (stereo not drawn) [Compound 9j, 1‐(1‐{[1‐(2,3‐dihydro‐1,4‐benzodioxin‐6‐yl)‐1 H‐1,2,3,4‐tetrazol‐5‐yl][4‐(propan‐2‐yl)phenyl]methyl}piperidin‐4‐yl)‐2,3‐dihydro‐1 H‐1,3‐benzodiazol‐2‐one]
- antiviral activity in plaque assay (in words) (A/WSN/33 (H1N1) [3]): not active

Compound: O=c1[nH]c2ccccc2n1C1CCN(C(c2ccsc2)c2nnnn2Cc2ccccc2)CC1 (stereo not drawn) [Compound 9p, 1‐{1‐[(1‐benzyl‐1 H‐1,2,3,4‐tetrazol‐5‐yl)(thiophen‐3‐yl)methyl]piperidin‐4‐yl}‐2,3‐dihydro‐1 H‐1,3‐benzodiazol‐2‐one]
- % plaque formation at 5 µM (A/WSN/33 (H1N1) [3]): 12.3 ± 2.1%

Compound: C[C@@H](c1ccccc1)n1nnnc1[C@H](c1ccsc1)N1CCC(n2c(=O)[nH]c3ccccc32)CC1 [Compound 12a, 1‐{1‐[(S)‐{1‐[(1 S)‐1‐phenylethyl]‐1 H‐1,2,3,4‐tetrazol‐5‐yl}(thiophen‐3‐yl)methyl]piperidin‐4‐yl}‐2,3‐dihydro‐1 H‐1,3‐benzodiazol‐2‐one]
- CC50 (in vitro [1]): > 150 µM
- SI (selectivity index), A549 (A/Texas/04/2009 (H1N1)): >136.4/89.2
- selectivity ratio [6]: > 100
- SI (selectivity index), A549 [7]: >250/163.5
- selectivity ratio [2]: > 250
- SI (selectivity index), A549 [8]: >100/65.4
- SI (selectivity index), A549 (A/WSN/33 (H1N1) [3]): >214.3/140.1
- SI (selectivity index), A549 [9]: >55.6/36.3
- selectivity ratio [4]: > 188
- EC50 ([5]; […], read-out: EC50 values against panel of influenza A and B viruses): 0.6 to 2.7 µM
- SI (selectivity index), A549 [10]: >187.5/122.6
- selectivity ratio [11]: > 125
- SI (selectivity index), A549 [12]: >125/81.8
- SI (selectivity index), A549 [13]: >115.4/75.5
- SI (selectivity index), A549 [14]: >166.7/109.0
- CC50 (in vitro [15]): 98.1 ± 2.5 µM
- SI (selectivity index), A549 [16]: >187.5/122.6
- effect of pre-treatment of cells on viral replication (A/WSN/33 (H1N1) [17]): little to no effect on viral replication
- efficacy when added at later stages of viral replication (A/WSN/33 (H1N1) [17]): gradually decreased
- SI (selectivity index), A549 [18]: >107.1/70.1
- selectivity ratio [19]: > 55.6
- SI (selectivity index), A549 [20]: >166.7/109.0

Compound: C[C@@H](c1ccccc1)n1nnnc1[C@@H](c1ccsc1)N1CCC(n2c(=O)[nH]c3ccccc32)CC1 [Compound 12b, 1‐{1‐[(R)‐{1‐[(1 S)‐1‐phenylethyl]‐1 H‐1,2,3,4‐tetrazol‐5‐yl}(thiophen‐3‐yl)methyl]piperidin‐4‐yl}‐2,3‐dihydro‐1 H‐1,3‐benzodiazol‐2‐one]
- antiviral activity in plaque assay (in words) (A/WSN/33 (H1N1) [3]): not active

Compound: Cc1onc(-c2ccccc2)c1C(=O)N1CCN(c2ccc([N+](=O)[O-])cc2Cl)CC1 [Nucleozin, reference compound]
- % plaque formation (A/WSN/33 (H1N1) [3]): 0%

Compound: Oseltamivir carboxylate [reference compound]
- % plaque formation (A/WSN/33 (H1N1) [3]): 11.1 ± 2.1%
- antiviral activity when added 8 h post viral infection (A/WSN/33 (H1N1) [17]): retained potent antiviral activity
